Assay results: article PMC3197159, “The Atypical Stimulant and Nootropic Modafinil Interacts with the Dopamine Transporter in a Different Manner than Classical Cocaine-Like Inhibitors” (PLoS ONE, 2011)

Columns and labels:
WT human DAT = WT human DAT (Homo sapiens, UniProt Q01959); test: [3H]CFT binding inhibition, intact HEK293 cells expressing WT hDAT; conditions: inhibition by cold β-CFT
NET = system: NET; set-up: method as in Madras et al. (2006) 53; conditions: ref Madras et al. (2006) 53; read-out: IC50, inhibition of noradrenaline uptake by the NET; cited from earlier work

WT human DAT, sequence (Q01959 whole entry): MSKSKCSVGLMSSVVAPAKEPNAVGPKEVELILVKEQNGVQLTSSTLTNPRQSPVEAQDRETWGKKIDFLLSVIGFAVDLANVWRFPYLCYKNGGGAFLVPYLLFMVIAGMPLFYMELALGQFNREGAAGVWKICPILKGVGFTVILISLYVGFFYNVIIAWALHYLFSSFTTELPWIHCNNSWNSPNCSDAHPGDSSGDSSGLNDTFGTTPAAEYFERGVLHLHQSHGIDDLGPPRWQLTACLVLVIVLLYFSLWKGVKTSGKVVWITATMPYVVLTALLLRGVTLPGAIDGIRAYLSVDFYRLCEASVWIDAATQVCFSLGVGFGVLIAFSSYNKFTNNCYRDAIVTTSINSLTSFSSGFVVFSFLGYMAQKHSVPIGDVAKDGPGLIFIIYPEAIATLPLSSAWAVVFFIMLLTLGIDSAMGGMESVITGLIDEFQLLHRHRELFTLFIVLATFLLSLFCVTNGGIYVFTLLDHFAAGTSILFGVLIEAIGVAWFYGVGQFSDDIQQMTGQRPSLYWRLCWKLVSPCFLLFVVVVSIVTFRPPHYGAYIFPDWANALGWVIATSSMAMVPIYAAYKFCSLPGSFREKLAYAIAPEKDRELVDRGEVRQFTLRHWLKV

| Compound | Bmax of [3H]CFT binding, sodium-free + Zn2+ (WT human DAT; sodium-free conditions with 10 µM Zn2+) [fmole/well] | Bmax of [3H]CFT binding, sodium-free (WT human DAT; sodium-free conditions, no Zn2+) [fmole/well] | IC50 (NET) [µM] |
| --- | --- | --- | --- |
| COC(=O)C1C(c2ccc(F)cc2)CC2CCC1N2C (stereo not drawn) [β-CFT] | 502±78 | 125±15.8 |  |
